# From paper PMC6141879, “How Does the Sweet Violet (Viola odorata L.) Fight Pathogens and Pests – Cyclotides as a Comprehensive Plant Host Defense System” (Frontiers in Plant Science, 2018)
# pEC50: −log10 of the molar value. Where a SMILES comes first, the peptide text is derived from it. Bridges are numbered along the chain shown (N, C = ends).
# Key:
# Botrytis cinerea = conditions: 48 h
# [1] = test system: Colletotrichum utrechtense; conditions: 72 h
# [2] = Liposome leakage assay, fungal membrane model; conditions: read-out: EC50 of liposome permeabilization (carboxyfluorescein leakage); S. cerevisiae polar lipid extract:ergosterol 7:3 liposomes, Tris buffer, 45 min, % of Triton X-100 leakage, triplicate
# Alternaria alternata = conditions: 72 h
# Fusarium culmorum = conditions: 48 h
# Fusarium graminearum = conditions: 48 h
# Mycosphaerella fragariae = conditions: 48 h
# [3] = test system: Pectobacterium atrosepticum SCRI 1043; conditions: 24 h
# [4] = test system: Pseudomonas syringae pv. syringae strain Pss-762; experiment: Antibacterial MIC assay (CLSI), P. syringae pv. syringae; format: cell-based; conditions: M9 minimal medium with 0.4% glucose, 24 h, 28°C, 1.5 × 10^6 CFU ml^-1, OD600 < 0.1, triplicate, repeated three times
# Method: Cyclotides (cycloviolacin O2, O3, and O19) at concentrations of 0.78–100 μM were tested for activity against three bacterial plant pathogens: Pseudomonas syringae pv. syringae strain Pss-762 ([Taraszkiewicz et al., 2012]), Dickeya dadantii strain 3937 ([Glasner et al., 2011]) and Pectobacterium atrosepticum SCRI 1043 ([Bell et al., 2004]). Experiments were conducted according to the CLSI guidelines ([Clinical and Laboratory Standards Institute [CLSI], 2012]) using standard CA-MHB medium (BBL^TM Mueller-Hinton II Broth cation-adjusted, Becton Dickinson) or M9 minimal medium (per L: 6 g Na2HPO4, 3g KH2PO4, 0.5 g NaCl, 1 g NH4Cl) supplemented with glucose to a final concentration of 0.4%. Bacterial colonies from 24 h old cultures on TSA (trypticase soy agar, BioMerieux) plates were used to inoculate CA-MHB or M9 minimal medium and set up liquid cultures. Next, late log phase bacterial cultures were diluted to 0.5 McFarland standard, as determined by densimetry in the relevant medium (DensiMeter II, EMO, Brno). […] The minimal inhibitory concentration (MIC) of each cyclotide was determined as the lowest concentration required to inhibit bacterial growth, i.e., to reduce the culture’s OD600 to less than 0.1. OD600 values were measured with a microplate reader (EnVision^TM Multilabel Plate Reader, Perkin Elmer). […]
# [5] = test system: Dickeya dadantii strain 3937; conditions: 24 h
# [6] = test system: seven fungal plant pathogens; conditions: 0 h
# Fusarium oxysporum = conditions: 0 h
# F. oxysporum = experiment: Cyclotide stability assay in F. oxysporum culture; format: in vitro ADME, Fusarium oxysporum; conditions: 5 days old F. oxysporum culture (3000 spores in 150 μl 24 g l^-1 PDB), 5 μg cyO2 per well, 3 days, HPLC-UV 280 nm AUC relative to time 0, mean of triplicates, unaltered molecular mass
# Method: Freshly harvested F. oxysporum spores were grown in microplates (3000 spores in 150 μl of 24 g l^-1 PDB per well) on a rotary shaker. After 5 days of incubation, 5 μg of cyO2 in 10 μl of Milli-Q water was added to each well. Samples of the medium and mycelia were collected in Eppendorf tubes immediately after adding cyO2 (time 0) and after incubation with the cyclotide for 2, 4, 8h, 1, 2, and 3 days. The samples were freeze-dried, crushed with a pestle, and extracted with 200 μl of buffer B for 4 h on the rotary shaker. After centrifugation, the supernatant was collected, freeze-dried and reconstituted in buffer A for analysis by HPLC-UV-ESI-MS. HPLC was performed over 18 min using an LC-20 UFLC system (Shimadzu, Japan) with photodiode array detector (PDA) and a Waters (Milford, MA) XTerra MS C18 HPLC column (2.1 × 50 mm, with a particle size of 2.5 μm) at a flow rate of 0.5 ml min^-1 with a linear gradient from 5% to 60% ACN and 0.1% formic acid in water. ESI-MS detection was used to identify the cyO2 peak and to detect modifications of the peptide that may have been introduced by the fungus. For each incubation time, the peaks in the 280 nm UV chromatogram corresponding to cyO2 were integrated, and the mean area under the curve (AUC) for each incubation time was computed from independent triplicates. […]
Compound,MIC (Botrytis cinerea) [µM],MIC [1] [µM],pEC50 [2],MIC (Alternaria alternata) [µM],MIC (Fusarium culmorum) [µM],MIC (Fusarium graminearum) [µM],MIC (Mycosphaerella fragariae) [µM],MIC [3] [µM],MIC [4] [µM],MIC [5] [µM],"MICs, range or bound over the tested fungi [6] [µM]",MIC at the inoculum used for immunogold labeling (Fusarium oxysporum) [µM],initially added amount recovered after co-culture with F. oxysporum (F. oxysporum) [%]
"CC[C@H](C)[C@@H]1NC(=O)[C@H](C)NC(=O)[C@H](C)NC(=O)[C@H](CO)NC(=O)[C@H]([C@@H](C)CC)NC(=O)[C@@H]2CSSC[C@@H]3NC(=O)[C@H](C(C)C)NC(=O)[C@H](CCCCN)NC(=O)[C@H](CO)NC(=O)[C@H](CCCCN)NC(=O)[C@@H]4CSSC[C@H](NC(=O)[C@H](CO)NC(=O)[C@H](CCC(=O)O)NC(=O)CNC(=O)[C@H](CSSC[C@H](NC(=O)CNC1=O)C(=O)N[C@@H](CO)C(=O)N4)NC(=O)[C@@H]1CCCN1C(=O)[C@H]([C@@H](C)CC)NC(=O)CNC(=O)[C@H](CC(N)=O)NC(=O)[C@H](CCCNC(=N)N)NC(=O)[C@H](Cc1ccc(O)cc1)NC3=O)C(=O)N[C@@H](C(C)C)C(=O)N[C@@H](Cc1c[nH]c3ccccc13)C(=O)N[C@@H]([C@@H](C)CC)C(=O)N1CCC[C@H]1C(=O)N2 [cyO13] (cyclo(AAIGCSCKSKVCYRNGIPCGESCVWIPCIS); disulfide 5-19, 7-23, 12-28)",3,6.25,6.89,3,,,,,,,,,
CC(C)C[C@@H]1NC(=O)CNC(=O)[C@H](CC(N)=O)NC(=O)[C@H](CCCNC(=N)N)NC(=O)[C@H]([C@@H](C)O)NC(=O)[C@@H]2CSSC[C@@H]3NC(=O)[C@H]([C@@H](C)O)NC(=O)CNC(=O)CNC(=O)[C@H](C(C)C)NC(=O)[C@@H]4CSSC[C@H](NC(=O)[C@H](CO)NC(=O)[C@H](CSSC[C@H](NC(=O)[C@H](C(C)C)NC(=O)[C@@H]5CCCN5C1=O)C(=O)NCC(=O)N[C@@H](CCC(=O)O)C(=O)N[C@@H]([C@@H](C)O)C(=O)N4)NC(=O)CNC(=O)[C@@H]1CCCN1C(=O)[C@H]([C@@H](C)O)NC(=O)[C@H](CC(N)=O)NC3=O)C(=O)N[C@@H](CO)C(=O)N[C@@H](Cc1c[nH]c3ccccc13)C(=O)N1CCC[C@H]1C(=O)N[C@@H](C(C)C)C(=O)N2 [varv A],80,,,,40,40,>80,,,,,,
"CC[C@H](C)[C@@H]1NC(=O)[C@@H]2CSSC[C@@H]3NC(=O)[C@H](C(C)C)NC(=O)[C@H](CCCCN)NC(=O)[C@H](CO)NC(=O)[C@H](CCCCN)NC(=O)[C@@H]4CSSC[C@H](NC(=O)[C@H](CO)NC(=O)[C@H](CCC(=O)O)NC(=O)CNC(=O)[C@H](CSSC[C@H](NC(=O)CNC(=O)[C@H](C(C)C)NC(=O)[C@H](C(C)C)NC(=O)[C@H](CO)NC(=O)[C@H](CO)NC1=O)C(=O)N[C@@H](CO)C(=O)N4)NC(=O)[C@@H]1CCCN1C(=O)[C@H](CC(C)C)NC(=O)[C@H]([C@@H](C)O)NC(=O)CNC(=O)[C@H](CC(=O)O)NC(=O)[C@H](CCCCN)NC(=O)[C@H](Cc1ccc(O)cc1)NC3=O)C(=O)N[C@@H](C(C)C)C(=O)N[C@@H](Cc1c[nH]c3ccccc13)C(=O)N[C@@H]([C@@H](C)CC)C(=O)N1CCC[C@H]1C(=O)N2 [cyO19] (cyclo(CGESCVWIPCISSVVGCSCKSKVCYKDGTLP); disulfide 1-17, 5-19, 10-24)",1.5,6.25,7.10,1.5,1.5,12.5,>25,100,25,75,,,
"CC[C@H](C)[C@@H]1NC(=O)[C@H](C)NC(=O)[C@H](CO)NC(=O)[C@H]([C@@H](C)O)NC(=O)[C@H](CC(C)C)NC(=O)[C@@H]2CSSC[C@@H]3NC(=O)[C@H](C(C)C)NC(=O)[C@H](CCCCN)NC(=O)[C@H](CO)NC(=O)[C@H](CCCCN)NC(=O)[C@@H]4CSSC[C@H](NC(=O)[C@H](CO)NC(=O)[C@H](CCC(=O)O)NC(=O)CNC(=O)[C@H](CSSC[C@H](NC(=O)CNC1=O)C(=O)N[C@@H](CO)C(=O)N4)NC(=O)[C@@H]1CCCN1C(=O)[C@H]([C@@H](C)CC)NC(=O)CNC(=O)[C@H](CC(N)=O)NC(=O)[C@H](CCCNC(=N)N)NC(=O)[C@H](Cc1ccc(O)cc1)NC3=O)C(=O)N[C@@H](C(C)C)C(=O)N[C@@H](Cc1c[nH]c3ccccc13)C(=O)N[C@@H]([C@@H](C)CC)C(=O)N1CCC[C@H]1C(=O)N2 [cyO3] (cyclo(AIGCSCKSKVCYRNGIPCGESCVWIPCLTS); disulfide 4-18, 6-22, 11-27)",1.5,6.25,7.17,0.8,,,,100,25,75,0.8 to 12.5,,
"CC(C)C[C@@H]1NC(=O)CNC(=O)[C@H](CC(N)=O)NC(=O)[C@H](CCCNC(=N)N)NC(=O)[C@H]([C@@H](C)O)NC(=O)[C@@H]2CSSC[C@@H]3NC(=O)[C@H]([C@@H](C)O)NC(=O)CNC(=O)CNC(=O)[C@H](C(C)C)NC(=O)[C@@H]4CSSC[C@H](NC(=O)[C@H]([C@@H](C)O)NC(=O)[C@H](CSSC[C@H](NC(=O)[C@H](C(C)C)NC(=O)[C@@H]5CCCN5C1=O)C(=O)NCC(=O)N[C@@H](CCC(=O)O)C(=O)N[C@@H]([C@@H](C)O)C(=O)N4)NC(=O)CNC(=O)[C@@H]1CCCN1C(=O)[C@H]([C@@H](C)O)NC(=O)[C@H](CC(N)=O)NC3=O)C(=O)N[C@@H](CO)C(=O)N[C@@H](Cc1c[nH]c3ccccc13)C(=O)N1CCC[C@H]1C(=O)N[C@@H](C(C)C)C(=O)N2 [kB1, kalata B1]",80,,,,>80,>80,>80,,,,,,
"CC[C@H](C)[C@@H]1NC(=O)[C@H](C)NC(=O)[C@H](CO)NC(=O)[C@H](CO)NC(=O)[C@H]([C@@H](C)CC)NC(=O)[C@@H]2CSSC[C@@H]3NC(=O)[C@H](C(C)C)NC(=O)[C@H](CCCCN)NC(=O)[C@H](CO)NC(=O)[C@H](CCCCN)NC(=O)[C@@H]4CSSC[C@H](NC(=O)[C@H](CO)NC(=O)[C@H](CCC(=O)O)NC(=O)CNC(=O)[C@H](CSSC[C@H](NC(=O)CNC1=O)C(=O)N[C@@H](CO)C(=O)N4)NC(=O)[C@@H]1CCCN1C(=O)[C@H]([C@@H](C)CC)NC(=O)CNC(=O)[C@H](CC(N)=O)NC(=O)[C@H](CCCNC(=N)N)NC(=O)[C@H](Cc1ccc(O)cc1)NC3=O)C(=O)N[C@@H](C(C)C)C(=O)N[C@@H](Cc1c[nH]c3ccccc13)C(=O)N[C@@H]([C@@H](C)CC)C(=O)N1CCC[C@H]1C(=O)N2 [cyO2, cycloviolacin O2] (cyclo(AIGCSCKSKVCYRNGIPCGESCVWIPCISS); disulfide 4-18, 6-22, 11-27 (inferred); ring closure inferred)",,6.25,7.14,1.5,1.5,6.25,>25,100,,75,,80,~100
